The values that follow come from US7279286B2, “High-throughput-assay with high sensitivity for measuring of the activity of β-adrenergic receptor kinase and for determining the impact of test substances on such activity” (Sanofi-Aventis Deutschland GmbH, priority 2003, dated 2007).

For test [1], the target named is T1, βARK (Homo sapiens, UniProt P25098, A211R/K465R/R422H).
T1 sequence (P25098 1-689 A211R/R422H/K465R): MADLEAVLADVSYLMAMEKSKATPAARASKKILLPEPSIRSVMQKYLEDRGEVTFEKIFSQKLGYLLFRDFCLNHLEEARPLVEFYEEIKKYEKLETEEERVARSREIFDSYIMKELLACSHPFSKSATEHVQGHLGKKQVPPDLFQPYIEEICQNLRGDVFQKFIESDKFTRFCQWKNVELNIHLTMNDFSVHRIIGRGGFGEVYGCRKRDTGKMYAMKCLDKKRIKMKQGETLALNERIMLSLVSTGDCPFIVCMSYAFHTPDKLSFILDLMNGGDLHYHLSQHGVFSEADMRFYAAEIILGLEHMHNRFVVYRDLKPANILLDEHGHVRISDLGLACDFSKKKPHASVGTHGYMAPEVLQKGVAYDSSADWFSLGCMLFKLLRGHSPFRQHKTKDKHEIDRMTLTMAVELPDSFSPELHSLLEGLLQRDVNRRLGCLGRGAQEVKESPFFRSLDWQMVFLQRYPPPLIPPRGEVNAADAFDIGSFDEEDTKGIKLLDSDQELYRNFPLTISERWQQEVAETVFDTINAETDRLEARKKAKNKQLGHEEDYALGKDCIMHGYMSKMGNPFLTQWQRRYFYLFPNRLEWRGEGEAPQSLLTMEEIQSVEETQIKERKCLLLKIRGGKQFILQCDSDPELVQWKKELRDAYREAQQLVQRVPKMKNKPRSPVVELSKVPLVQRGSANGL
Nature of the test: βARK inhibition AlphaScreen assay (phosphorylation of biotinylated CCR5 peptide). It counts as biochemical. The settings on record: assay validation, read-out: apparent Km (ATP dependence). The text has this: (§1) In the βARK inhibition experiment biotinylated hunian CC ehemokine receptor 5, herein abbreviated CCR5 peptide (Seq. ID No. 1) is phosphorylated by the kinase. The phosphorylated serine is recognized by a specific antibody which, in turn, is bound to protein A coupled acceptor beads. The biotinylated N-terminus of the CCR5 peptide is coupled to streptavidin-coated donor heads. Thus, in the absence of inhibitors an AlphaScreen signal is detected that decreases when the enzymatic activity in inhibited. […]
(§2) Percent-inhibition values are calculated as: […]
A general note: Alpha assays give light when donor and acceptor beads are brought close together.

In test [2] the target is T2, βARK (Homo sapiens, UniProt P25098).
T2 sequence (P25098 1-689 A211R/R422H/K465R): T1 sequence (P25098 1-689 A211R/R422H/K465R)
Described as above. It counts as biochemical. The settings on record: 0.5 μM βARK, 100 nM CCR5 peptide, 10 μM ATP, 120 min room temperature, read-out: IC50 (dose-response curve).
Text: as §1, §2

Usually Km stands for the substrate concentration at which the rate is half of its maximum. What is called IC50 is the midpoint of a concentration-inhibition curve.

For the compound `Nc1ncnc2c1ncn2[C@@H]1O[C@H](COP(=O)(O)OP(=O)(O)OP(=O)(O)O)[C@@H](O)[C@H]1O` [ATP], the Michaelis-Menten constant (Km) on βARK [1] amounted to 4 µM.

On to heparin, for which the IC50 at βARK [2] came out at 50 nM.
